Measurements: ChEMBL document CHEMBL1649180, “Early postpartum pharmacokinetics of lopinavir initiated intrapartum in Thai women” (Antimicrob Agents Chemother, 2009)
Values belong to the molecule of their own block, whether it stands above or below them.

Key:
[1] = Cmax in HIV-infected Thai pregnant women at 100 mg, po bid initiated intrapartum in combination with 400 mg, po bid Lopinavir measured within 72 hrs postpartum; assay type: ADME, organism-based; design: dose 100 mg, route oral; conditions: female, human, in vivo
[2] = AUC (0 to 12 hrs) in HIV-infected Thai pregnant women at 100 mg, po bid initiated intrapartum in combination with 400 mg, po bid Lopinavir measured within 72 hrs postpartum; assay type: ADME, organism-based; design: time < 12 hr, dose 100 mg, route oral; conditions: female, human, plasma
[3] = Tmax in HIV-infected Thai pregnant women at 100 mg, po bid initiated intrapartum in combination with 400 mg, po bid Lopinavir measured within 72 hrs postpartum; assay type: ADME, organism-based; conditions: female, human, in vivo
[4] = Drug level in HIV-infected Thai pregnant women serum at 100 mg, po bid initiated intrapartum in combination with 400 mg, po bid Lopinavir measured 2 hrs post last dose; assay type: ADME, organism-based; conditions: female, human, read-out: Drug uptake
[5] = Drug level in HIV-infected Thai pregnant women serum at 100 mg, po bid initiated intrapartum in combination with 400 mg, po bid Lopinavir measured 4 hrs post last dose; assay type: ADME, organism-based; conditions: female, human, read-out: Drug uptake
[6] = Drug level in HIV-infected Thai pregnant women serum at 100 mg, po bid initiated intrapartum in combination with 400 mg, po bid Lopinavir measured 12 hrs post last dose; assay type: ADME, organism-based; conditions: female, human, read-out: Drug uptake
Serum [7] = assay: Drug level in HIV-infected Thai pregnant women serum before intrapartum initiation of 100 mg, po bid in combination with 400 mg, po bid Lopinavir; assay type: ADME, organism-based; conditions: human, in vivo
[8] = Drug level in HIV-infected Thai pregnant women serum at 100 mg, po bid initiated intrapartum administered for 30 days in combination with 400 mg, po bid Lopinavir measured before administering last dose; assay type: ADME, organism-based; conditions: female, human, read-out: Drug uptake
[9] = Drug level in HIV-infected Thai pregnant women serum at 100 mg, po bid initiated intrapartum administered for 30 days in combination with 400 mg, po bid Lopinavir measured 2 hrs post last dose; assay type: ADME, organism-based; conditions: female, human, read-out: Drug uptake
[10] = Drug level in HIV-infected Thai pregnant women serum at 100 mg, po bid initiated intrapartum administered for 30 days in combination with 400 mg, po bid Lopinavir measured 4 hrs post last dose; assay type: ADME, organism-based; conditions: female, human, read-out: Drug uptake
Serum [11] = assay: Ratio of drug level before intrapartum initiation to 30 days pre-last dose of HIV-infected Thai pregnant women serum at 100 mg, po bid in combination with 400 mg, po bid Lopinavir; assay type: ADME, organism-based; conditions: human, in vivo, 720 h
Serum [12] = assay: Ratio of drug level in 2 hrs to 30 days post last dose of HIV-infected Thai pregnant women serum at 100 mg, po bid initiated intrapartum in combination with 400 mg, po bid Lopinavir; assay type: ADME, organism-based; conditions: human, in vivo
Serum [13] = assay: Ratio of drug level in 4 hrs to 30 days post last dose of HIV-infected Thai pregnant women serum at 100 mg, po bid initiated intrapartum in combination with 400 mg, po bid Lopinavir; assay type: ADME, organism-based; conditions: human, in vivo
[14] = Cmax in HIV-infected Thai pregnant women at 400 mg, po bid initiated intrapartum in combination with 100 mg, po bid ritonavir measured within 72 hrs postpartum; assay type: ADME, organism-based; design: dose 400 mg, route oral; conditions: female, human, in vivo
[15] = AUC (0 to 12 hrs) in HIV-infected Thai pregnant women at 400 mg, po bid initiated intrapartum in combination with 100 mg, po bid ritonavir measured within 72 hrs postpartum; assay type: ADME, organism-based; design: time < 12 hr, dose 400 mg, route oral; conditions: female, human, plasma
[16] = Tmax in HIV-infected Thai pregnant women at 400 mg, po bid initiated intrapartum in combination with 100 mg, po bid ritonavir measured within 72 hrs postpartum; assay type: ADME, organism-based; conditions: female, human, in vivo
[17] = Drug level in HIV-infected Thai pregnant women serum at 400 mg, po bid initiated intrapartum in combination with 100 mg, po bid ritonavir measured 2 hrs post last dose; assay type: ADME, organism-based; conditions: female, human, read-out: Drug uptake
[18] = Drug level in HIV-infected Thai pregnant women serum at 400 mg, po bid initiated intrapartum in combination with 100 mg, po bid ritonavir measured 4 hrs post last dose; assay type: ADME, organism-based; conditions: female, human, read-out: Drug uptake
[19] = Drug level in HIV-infected Thai pregnant women serum at 400 mg, po bid initiated intrapartum in combination with 100 mg, po bid ritonavir measured 12 hrs post last dose; assay type: ADME, organism-based; conditions: female, human, read-out: Drug uptake
Serum [20] = assay: Drug level in HIV-infected Thai pregnant women serum before intrapartum initiation of 400 mg, po bid in combination with 100 mg, po bid ritonavir; assay type: ADME, organism-based; conditions: human, in vivo
[21] = Drug level in HIV-infected Thai pregnant women serum at 400 mg, po bid initiated intrapartum administered for 30 days in combination with 100 mg, po bid ritonavir measured before administering last dose; assay type: ADME, organism-based; conditions: female, human, read-out: Drug uptake
[22] = Drug level in HIV-infected Thai pregnant women serum at 400 mg, po bid initiated intrapartum administered for 30 days in combination with 100 mg, po bid ritonavir measured 2 hrs post last dose; assay type: ADME, organism-based; conditions: female, human, read-out: Drug uptake
[23] = Drug level in HIV-infected Thai pregnant women serum at 400 mg, po bid initiated intrapartum administered for 30 days in combination with 100 mg, po bid ritonavir measured 4 hrs post last dose; assay type: ADME, organism-based; conditions: female, human, read-out: Drug uptake
Serum [24] = assay: Ratio of drug level before intrapartum initiation to 30 days pre-last dose of HIV-infected Thai pregnant women serum at 400 mg, po bid in combination with 100 mg, po bid ritonavir; assay type: ADME, organism-based; conditions: human, in vivo, 720 h
Serum [25] = assay: Ratio of drug level in 2 hrs to 30 days post last dose of HIV-infected Thai pregnant women serum at 400 mg, po bid initiated intrapartum in combination with 100 mg, po bid ritonavir; assay type: ADME, organism-based; conditions: human, in vivo
Serum [26] = assay: Ratio of drug level in 4 hrs to 30 days post last dose of HIV-infected Thai pregnant women serum at 400 mg, po bid initiated intrapartum in combination with 100 mg, po bid ritonavir; assay type: ADME, organism-based; conditions: human, in vivo
Homo sapiens = assay: Toxicity in HIV-infected Thai pregnant women assessed as adverse effect at 400 mg, po bid initiated intrapartum administered for 30 days in combination with 100 mg, po bid ritonavir; assay type: organism-based; conditions: in vivo, 720 h

- Cmax [1]: 600 ng/mL
- AUC at 12 h [2]: 4270 ng·h/mL
- Tmax [3]: 3.9 h
- concentration at 2 h [4]: 450 ng/mL
- concentration at 4 h [5]: 580 ng/mL
- concentration at 12 h [6]: 100 ng/mL
- Drug uptake (Serum [7]): 0.16 µg/mL
- concentration at 720 h [8]: 290 ng/mL
- concentration at 2 h [9]: 610 ng/mL
- concentration at 4 h [10]: 810 ng/mL
- Drug uptake (Serum [11]): 0.54
- Drug uptake (Serum [12]): 0.76
- Drug uptake (Serum [13]): 0.68
Compound: CC(C)c1nc(CN(C)C(=O)N[C@H](C(=O)N[C@@H](Cc2ccccc2)C[C@H](O)[C@H](Cc2ccccc2)NC(=O)OCc2cncs2)C(C)C)cs1 [RITONAVIR]

- Cmax [14]: 11200 ng/mL
- AUC at 12 h [15]: 99700 ng·h/mL
- Tmax [16]: 3.9 h
- concentration at 2 h [17]: 10500 ng/mL
- concentration at 4 h [18]: 10800 ng/mL
- concentration at 12 h [19]: 5180 ng/mL
- Drug uptake (Serum [20]): 6.08 µg/mL
- concentration at 720 h [21]: 9170 ng/mL
- concentration at 2 h [22]: 11700 ng/mL
- concentration at 4 h [23]: 13000 ng/mL
- Drug uptake (Serum [24]): 0.66
- Drug uptake (Serum [25]): 0.85
- Drug uptake (Serum [26]): 0.81
Compound: Cc1cccc(C)c1OCC(=O)N[C@@H](Cc1ccccc1)[C@@H](O)C[C@H](Cc1ccccc1)NC(=O)[C@H](C(C)C)N1CCCNC1=O [LOPINAVIR]
- Activity (Homo sapiens): Non-toxic
